Reference: patent US11746098B2, “Proteasome activity enhancing compounds” (Proteostasis Therapeutics, Inc., priority 2018, dated 2023)

Each molecule was assayed against USP14 (Homo sapiens, UniProt P54578) (assay: USP14 Inhibition Assay). Conditions: average value from a minimum of two experimental determinations, read-out: IC50 Category.
Assay type: biochemical
From the text: The activity of the compound described herein to inhibit USP14 can be measured using previously described methodology [B. H. Lee et al. Nature 2010, 467 (9), 179, the contents of which are expressly incorporated by reference herein].
Example 6: USP14 Inhibition Assay

SMILES	IC50 [µM]
Cc1cc(C(=O)CN2CCCCC2)c(C)n1-c1ccc(O)cc1 [Compound 7, 1-(1-(4-Hydroxyphenyl)-2,5-dimethyl-1H-pyrrol-3-yl)-2-(piperidin-1-yl)ethanone]	> 5
COc1ccc(-n2c(C)cc(C(=O)CN3CCCCC3)c2C)cc1F [Compound 63, 1-(1-(3-Fluoro-4-methoxyphenyl)-2,5-dimethyl-1H-pyrrol-3-yl)-2-(piperidin-1-yl)ethanone]	0.5 to 5
Cc1cc(C(=O)CN2CCCCC2)c(C)n1[C@H]1CC[C@H](C#N)CC1 [Compound 143, trans-4-(2,5-Dimethyl-3-(2-(piperidin-1-yl)acetyl)-1H-pyrrol-1-yl)cyclohexane-1-carbonitrile]	0.5 to 5
Cc1c(C(=O)CN2CCC(O)CC2)c(C)n(-c2ccc(Cl)cc2)c1C [Compound 139, 1-(1-(4-Chlorophenyl)-2,4,5-trimethyl-1H-pyrrol-3-yl)-2-(4-hydroxypiperidin-1-yl)ethanone]	0.5 to 5
Cc1cc(C(=O)CNC2CCCCCC2)c(C)n1-c1ccc(Cl)cc1 [Compound 67, 1-(1-(4-Chlorophenyl)-2,5-dimethyl-1H-pyrrol-3-yl)-2-(cycloheptylamino)ethanone]	0.5 to 5
Cc1cc(Cl)cc(C)c1-n1cccc1C(=O)CN1CCC(O)CC1 [Compound 29, 1-(1-(4-Chloro-2,6-dimethylphenyl)-1H-pyrrol-2-yl)-2-(4-hydroxypiperidin-1-yl)ethanone]	> 5
Cc1cc(C(=O)CN2CCC(OCc3ccccc3)C2)c(C)n1-c1ccc(Cl)cc1 (stereo not shown) [Compound 49, 2-(3-(Benzyloxy)pyrrolidin-1-yl)-1-(1-(4-chlorophenyl)-2,5-dimethyl-1H-pyrrol-3-yl)ethanone]	0.5 to 5
Cc1cc(C(=O)CN2CCC(O)CC2)c(C)n1-c1cccc2ccccc12 [Compound 9, 1-(2,5-Dimethyl-1-(naphthalen-1-yl)-1H-pyrrol-3-yl)-2-(4-hydroxypiperidin-1-yl)ethanone]	> 5
CCCNC(=O)OC1CCCN(CC(=O)c2cc(C)n(-c3ccc(Cl)cc3)c2C)C1 (stereo not shown) [Compound 54, 1-(2-(1-(4-Chlorophenyl)-2,5-dimethyl-1H-pyrrol-3-yl)-2-oxoethyl)piperidin-3-yl propylcarbamate]	0.5 to 5
Cc1cc(C(=O)CN2CCCCC2)n(C)c1-c1ccc(Cl)cc1 [Compound 96, 1-(5-(4-Chlorophenyl)-1,4-dimethyl-1H-pyrrol-2-yl)-2-(piperidin-1-yl)ethanone]	< 0.5
Cc1cc(C(=O)CN2CCCCC2)c(C)n1-c1ccc(C(F)(F)F)cc1 [Compound 68, 1-(2,5-Dimethyl-1-(4-(trifluoromethyl)phenyl)-1H-pyrrol-3-yl)-2-(piperidin-1-yl)ethanone]	0.5 to 5
Cc1cc(C(=O)CNCC2COC(C)(C)O2)c(C)n1-c1ccc(Cl)cc1 (stereo not shown) [Compound 40, 1-(1-(4-Chlorophenyl)-2,5-dimethyl-1H-pyrrol-3-yl)-2-(((2,2-dimethyl-1,3-dioxolan-4-yl)methyl)amino)ethanone]	> 5
Cc1cc(C(=O)CN2CCCC2)c(C)n1-c1ccc(OC(F)(F)F)cc1 [Compound 61, 1-(2,5-Dimethyl-1-(4-(trifluoromethoxy)phenyl)-1H-pyrrol-3-yl)-2-(pyrrolidin-1-yl)ethanone]	0.5 to 5
Cc1cc(Cl)cc(C)c1-n1ccc(C(=O)CN2CCCCC2)c1 [Compound 26, 1-(1-(4-Chloro-2,6-dimethylphenyl)-1H-pyrrol-3-yl)-2-(piperidin-1-yl)ethanone]	> 5
Cc1cc(C(=O)C[N+]2(C)CCCCC2)c(C)n1-c1ccc(Cl)cc1 [Compound 44, 1-(2-(1-(4-Chlorophenyl)-2,5-dimethyl-1H-pyrrol-3-yl)-2-oxoethyl)-1-methylpiperidin-1-ium Iodide]	> 5
Cc1cc(C(=O)CN2CCC(F)CC2)c(C)n1-c1ccc(F)cc1 [Compound 74, 1-(1-(4-Fluorophenyl)-2,5-dimethyl-1H-pyrrol-3-yl)-2-(4-fluoropiperidin-1-yl)ethanone]	0.5 to 5
Cc1cc(C(=O)CN2CCCC2)c(C)n1-c1cccc2ccccc12 [Compound 8, 1-(2,5-Dimethyl-1-(naphthalen-1-yl)-1H-pyrrol-3-yl)-2-(pyrrolidin-1-yl)ethanone]	> 5
CCNC(=O)COC1CCN(CC(=O)c2cc(C)n(-c3ccc(Cl)cc3)c2C)CC1 [Compound 79, 2-((1-(2-(1-(4-Chlorophenyl)-2,5-dimethyl-1H-pyrrol-3-yl)-2-oxoethyl)piperidin-4-yl)oxy)-N-ethylacetamide]	< 0.5
Cc1ccc(C(=O)CN2CCCCC2)n1-c1ccc(Cl)cc1 [Compound 33, 1-(1-(4-Chlorophenyl)-5-methyl-1H-pyrrol-2-yl)-2-(piperidin-1-yl)ethanone]	> 5
Cc1c(C(=O)CN2CCCCC2)c(C)n(-c2ccc(Cl)cc2)c1C [Compound 137, 1-(1-(4-Chlorophenyl)-2,4,5-trimethyl-1H-pyrrol-3-yl)-2-(piperidin-1-yl)ethanone]	0.5 to 5

SMILES	IC50 [µM]
CC#Cc1ccc(-n2c(C)cc(C(=O)CN3CCCCC3)c2C)cc1 [Compound 136, 1-(2,5-Dimethyl-1-(4-(prop-1-yn-1-yl)phenyl)-1H-pyrrol-3-yl)-2-(piperidin-1-yl)ethanone]	0.5 to 5
Cc1cc(C(=O)CN2CCCCC2)c(C)n1-c1cccc2ccccc12 [Compound 5, 1-(2,5-Dimethyl-1-(naphthalen-1-yl)-1H-pyrrol-3-yl)-2-(piperidin-1-yl)ethanone]	> 5
Cc1cc(C(=O)CN2CCCC2)c(C)n1-c1ccc(C#N)cc1 [Compound 85, 4-(2,5-Dimethyl-3-(2-(pyrrolidin-1-yl)acetyl)-1H-pyrrol-1-yl)benzonitrile]	< 0.5
Cc1cc(C(=O)CN2CCCCC2)c(C)n1[C@H]1CC[C@@H](F)CC1 [Compound 32, 1-(1-(cis-4-Fluorocyclohexyl)-2,5-dimethyl-1H-pyrrol-3-yl)-2-(piperidin-1-yl)ethanone]	> 5
Cc1cc(C(=O)CNCCOCc2ccccc2)c(C)n1-c1ccc(Cl)cc1 [Compound 41, 2-((2-(Benzyloxy)ethyl)amino)-1-(1-(4-chlorophenyl)-2,5-dimethyl-1H-pyrrol-3-yl)ethanone]	> 5
Cc1cc(C(=O)CN2CCCCC2)c(C)n1[C@H]1CC[C@@H](C(=O)OCc2ccccc2)CC1 [Compound 45, cis-Benzyl 4-(2,5-dimethyl-3-(2-(piperidin-1-yl)acetyl)-1H-pyrrol-1-yl)cyclohexanecarboxylate]	> 5
COc1cc(NS(=O)(=O)c2ccc(-n3c(C)cc(C(=O)CN4CCCCC4)c3C)cc2)nc(OC)n1 [Compound 1, N-(2,6-Dimethoxypyrimidin-4-yl)-4-(2,5-dimethyl-3-(2-(piperidin-1-yl)acetyl)-1H-pyrrol-1-yl)benzenesulfonamide]	> 5
Cc1cc(C(=O)CN2CCCC(CNC(=O)OC(C)(C)C)C2)c(C)n1-c1ccc(C#N)cc1 (stereo not shown) [Compound 158, tert-butyl ((1-(2-(1-(4-cyanophenyl)-2,5-dimethyl-1H-pyrrol-3-yl)-2-oxoethyl)piperidin-3-yl)methyl)carbamate]	< 0.5
CCCNC(=O)COC1CCN(CC(=O)c2cc(C)n(-c3ccc(Cl)cc3)c2C)CC1 [Compound 83, 2-((1-(2-(1-(4-Chlorophenyl)-2,5-dimethyl-1H-pyrrol-3-yl)-2-oxoethyl)piperidin-4-yl)oxy)-N-propylacetamide]	< 0.5
Cc1cc(C(=O)CN2CCC(O)CC2)c(C)n1-c1ccc(F)c(F)c1 [Compound 70, 1-(1-(3,4-Difluorophenyl)-2,5-dimethyl-1H-pyrrol-3-yl)-2-(4-hydroxypiperidin-1-yl)ethanone]	0.5 to 5
Cc1cc(C(=O)CN2CCC(O)CC2)c(C)n1-c1ccc(O)cc1 [Compound 20, 1-(1-(4-Hydroxyphenyl)-2,5-dimethyl-1H-pyrrol-3-yl)-2-(4-hydroxypiperidin-1-yl)ethanone]	> 5
Cc1cc(C(=O)CN2CCCC(CN)C2)c(C)n1-c1ccc(C#N)cc1 (stereo not shown) [Compound 159, 4-(3-(2-(3-(Aminomethyl)piperidin-1-yl)acetyl)-2,5-dimethyl-1H-pyrrol-1-yl)benzonitrile]	< 0.5
Cc1cc(C(=O)CN2CCC(C(=O)OCc3ccccc3)CC2)c(C)n1C1CCC1 [Compound 37, Benzyl 1-(2-(1-cyclobutyl-2,5-dimethyl-1H-pyrrol-3-yl)-2-oxoethyl)piperidine-4-carboxylate]	> 5
Cc1cc(C(=O)CN2CCC(S(C)(=O)=O)C2)c(C)n1-c1ccc(Cl)cc1 (stereo not shown) [Compound 51, 1-(1-(4-Chlorophenyl)-2,5-dimethyl-1H-pyrrol-3-yl)-2-(3-(methylsulfonyl)pyrrolidin-1-yl)ethanone]	0.5 to 5
Cc1cc(C(=O)CN2CCC(O)CC2)c(C)n1-c1ccc(F)cc1 [Compound 73, 1-(1-(4-Fluorophenyl)-2,5-dimethyl-1H-pyrrol-3-yl)-2-(4-hydroxypiperidin-1-yl)ethanone]	0.5 to 5
Cc1cc(C(=O)CN2CCCCC2)c(C)n1-c1ccc(S(C)(=O)=O)cc1 [Compound 12, 1-(2,5-Dimethyl-1-(4-(methylsulfonyl)phenyl)-1H-pyrrol-3-yl)-2-(piperidin-1-yl)ethanone]	> 5
Cc1cc(C(=O)CN2CCCCC2)c(C)n1-c1cc(F)cc(F)c1 [Compound 14, 1-(1-(3,5-Difluorophenyl)-2,5-dimethyl-1H-pyrrol-3-yl)-2-(piperidin-1-yl)ethanone]	> 5
Cc1cc(C(=O)CN2CCCCC2)c(C)n1-c1ccc(OC(F)(F)F)cc1 [Compound 58, 1-(2,5-Dimethyl-1-(4-(trifluoromethoxy)phenyl)-1H-pyrrol-3-yl)-2-(piperidin-1-yl)ethanone]	0.5 to 5
Cc1c(C(=O)CN2CCCCC2)cc(C2CC2)n1-c1ccc(Cl)cc1 [Compound 90, 1-(1-(4-Chloropheny1)-5-cyclopropyl-2-methyl-1H-pyrrol-3-yl)-2-(piperidin-1-yl)ethanone]	< 0.5
Cc1cc(C(=O)CN2CCCCC2)c(C)n1-c1ccc(C(=O)O)cc1 [Compound 114, 4-(2,5-Dimethyl-3-(2-(piperidin-1-yl)acetyl)-1H-pyrrol-1-yl)benzoic acid]	> 5
